One assay concerns peptide-pulsed C1R-A03. Description: In vitro CTL induction, IFN-gamma ELISPOT assay (HLA-A*0301). The assay is classed as cell-based, human. The following applies: CTLs induced with peptide-pulsed DCs from HLA-A*0301-positive volunteers; day 21; vs peptide-pulsed C1R-A03, compared with unpulsed control. Here is the method:
C1R (C1R-A03) that stably expresses HLA-A*0301 was used as a stimulator cell. A cDNA encoding the open-reading frame of HLA-A*0301 was amplified by PCR and cloned into an expression vector. C1R cells were transfected with the expression vector, and then selected using G418 (Invitrogen) for two weeks. The G418-selected cells were seeded into wells containing G418-added culture medium in a 96-well plate, and further cultured for 30 days. The exogenous HLA-A*0301 expression in C1R cells was verified by flow cytometric analysis.
Monocyte-derived dendritic cells (DCs) were used as the antigen-presenting cell to induce a cytotoxic T lymphocyte (CTL) response against peptides presented on human leukocyte antigens (HLAs). As described in the other sections, DCs were generated in vitro (Nakahara S et al., Cancer Res 2003, 63(14): 4112-8). Specifically, peripheral-blood mononuclear cells isolated from healthy volunteers (HLA-A*0301-positive) with the Ficoll-Paque plus solution (Pharmacia) were separated by attaching to plastic tissue culture dishes (Becton Dickinson) and concentrated as a monocyte fraction. The monocyte-concentrated population was cultured in the presence of 1000 IU/ml granulocyte macrophage colony-stimulating factor (R&D System) and 1000 IU/ml interleukin(IL)-4 (R&D System) in an AIM-V medium (Invitrogen) containing 2% heat-inactivated autologous serum (AS). After seven days of culturing, the cytokine-induced DCs were pulsed with 20 micro-g/ml each of the synthesized peptides in an AIM-V medium at 37 degrees C. for three hours in the presence of 3 micro-g/ml beta 2-microglobulin. The generated cells appeared to express on their cell surface DC-associated molecules such as CD80, CD83, CD86 and HLA class II (data not shown). Next, these peptide-pulsed DCs were inactivated by X-ray irradiation (20 Gy), and mixed in a 1:20 ratio with autologous CD8^+ T cells obtained by positive selection using the CD8 Positive Isolation Kit (Dynal). These culture products were seeded in a 48-well plate (Corning). Each well was made to contain 1.5×10^4 peptide-pulsed DCs, 3×10^5 CD8^+ T cells and 10 ng/ml IL-7 (R&D System) in 0.5 ml of the AIM-V/2% AS medium. Three days later, these culture products were added with a final concentration of 20 IU/ml IL-2 (CHIRON). On day 7 and day 14, T cells were further stimulated with peptide-pulsed autologous DCs. The DCs were prepared every time by the same method as above. […]

The next assay has as its system peptide-pulsed C1R-A11. Description: IFN-gamma ELISA of CTL lines and CTL clones (HLA-A*1101). The class given is cell-based, human. The following applies: CTL lines; target cells pulsed with the peptide vs not pulsed; C1R-A11. On the procedure: CTLs were propagated in culture using methods similar to those disclosed by Riddell et al. (Walter E A et al., N Engl J Med 1995, 333(16): 1038-44; Riddell S R et al., Nat Med 1996, 2(2): 216-23). The CTLs were co-cultured in a total of 25 ml AIM-V medium containing 5% AS (AIM-V/5% AS) and 40 ng/ml anti-CD3 antibody with two types of Mitomycin C-treated human B lymphoblastoid cell lines at 5×10^6 cells/flask. One day after beginning of the culturing, 120 IU/ml IL-2 was added to the culture. On days 5, 8 and 11, a fresh AIM-V/5% AS medium containing 30 IU/ml IL-2 was added to the culture (Tanaka H et al., Br J Cancer 2001, 84(1): 94-9; Umano Y et al., Br J Cancer 2001, 84(8): 1052-7; Uchida N et al., Clin Cancer Res 2004, 10(24): 8577-86; Suda T et al., Cancer Sci 2006, 97(5): 411-9; Watanabe T et al., Cancer Sci 2005, 96(8): 498-506).
Dilution of CTLs was carried out to make 0.3, 1 and 3 cells/well in 96 round-bottomed microtiter plates (Nalge Nunc International). The CTLs were co-cultured with two types of Mitomycin C-treated human B lymphoblastoid cell lines at 1×10^4 cells/well in a total of 150 micro-1/well AIM-V/5% AS medium with 30 ng/ml anti-CD3 antibody and 125 IU/ml IL-2. Ten days later, IL-2 was added to the medium at 50 micro-1/well to reach a final concentration of 125 IU/ml. On day 14, the CTL activity was tested, and the CTL clones were propagated using the same method as described above (Uchida N et al., Clin Cancer Res 2004, 10(24): 8577-86; Suda T et al., Cancer Sci 2006, 97(5): 411-9; Watanabe T et al., Cancer Sci 2005, 96(8): 498-506).
Specifically, peptide-pulsed C1R-A11 (1×10^4 cells/well) was prepared as the stimulator cell. The induced CTLs, i.e., CTL lines and CTL clones, were used as the responder cell. The IFN-gamma ELISPOT assay and IFN-gamma ELISA were performed according to the manufacturer's manual.

From patent US10576102B2, “KOC1-derived peptide and vaccine including same” (ONCOTHERAPY SCIENCE, INC., priority 2014, dated 2020) come the findings set out here.

Turning to “ILAHNNFVGR (a peptide derived from KOC1) [SEQ ID NO: 52]”, the “peptide-specific CTL activity (IFN-gamma production), ELISPOT” value in the assay on peptide-pulsed C1R-A03 is on record as “potent IFN-gamma production”.
For “TQFVGAIIGK (a peptide derived from KOC1) [SEQ ID NO: 30]”, the “IFN-gamma production of CTL lines, ELISA” value in the assay on peptide-pulsed C1R-A11 was “potent IFN-gamma production”. Moreover, the “peptide-specific CTL activity (IFN-gamma production), ELISPOT” value in the assay with peptide-pulsed C1R-A03 is reported as “potent IFN-gamma production”.
